Biological target: ATP-dependent translocase ABCB1 (Homo sapiens, UniProt P08183)
Assay: TP_TRANSPORTER: transepithelial transport in MDR1-transfected MDCKII cells
Assay type: functional, cell-based
Settings: dog, mdck-ii

ATP-dependent translocase ABCB1, sequence (P08183 whole entry): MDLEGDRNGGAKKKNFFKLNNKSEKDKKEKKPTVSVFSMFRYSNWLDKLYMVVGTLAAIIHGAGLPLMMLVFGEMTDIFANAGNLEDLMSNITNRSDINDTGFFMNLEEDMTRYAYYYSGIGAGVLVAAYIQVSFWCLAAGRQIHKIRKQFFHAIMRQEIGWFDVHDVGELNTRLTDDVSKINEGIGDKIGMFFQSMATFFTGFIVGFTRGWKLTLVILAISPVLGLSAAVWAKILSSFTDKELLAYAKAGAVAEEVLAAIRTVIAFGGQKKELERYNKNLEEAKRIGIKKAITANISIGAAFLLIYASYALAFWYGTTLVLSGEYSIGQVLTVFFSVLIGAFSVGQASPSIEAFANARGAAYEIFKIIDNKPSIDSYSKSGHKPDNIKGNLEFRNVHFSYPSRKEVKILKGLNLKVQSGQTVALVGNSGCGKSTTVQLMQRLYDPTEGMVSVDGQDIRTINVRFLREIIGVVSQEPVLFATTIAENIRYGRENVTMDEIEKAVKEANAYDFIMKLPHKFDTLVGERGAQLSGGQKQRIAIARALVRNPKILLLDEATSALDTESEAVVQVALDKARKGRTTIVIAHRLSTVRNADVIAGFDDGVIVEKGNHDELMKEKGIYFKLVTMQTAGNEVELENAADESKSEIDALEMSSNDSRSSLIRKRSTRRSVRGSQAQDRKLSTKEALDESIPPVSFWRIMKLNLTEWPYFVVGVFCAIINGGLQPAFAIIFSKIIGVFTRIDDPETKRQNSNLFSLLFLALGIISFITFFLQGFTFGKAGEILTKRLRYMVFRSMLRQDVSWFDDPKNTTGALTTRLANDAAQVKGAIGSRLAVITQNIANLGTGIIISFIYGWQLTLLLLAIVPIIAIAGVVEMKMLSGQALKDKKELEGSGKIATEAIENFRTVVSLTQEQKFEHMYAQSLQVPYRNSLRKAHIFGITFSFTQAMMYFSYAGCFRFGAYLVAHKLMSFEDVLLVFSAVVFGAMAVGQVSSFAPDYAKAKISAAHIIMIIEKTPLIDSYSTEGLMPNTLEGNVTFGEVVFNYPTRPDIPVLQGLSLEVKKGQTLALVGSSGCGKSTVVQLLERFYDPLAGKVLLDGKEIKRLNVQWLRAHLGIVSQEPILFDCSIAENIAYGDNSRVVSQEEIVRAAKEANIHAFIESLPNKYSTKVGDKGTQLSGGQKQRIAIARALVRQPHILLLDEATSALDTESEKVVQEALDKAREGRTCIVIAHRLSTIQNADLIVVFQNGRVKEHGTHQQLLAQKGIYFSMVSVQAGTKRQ

Structure (SMILES): Cc1ccc(NC(=O)c2ccc(CN3CCN(C)CC3)cc2)cc1Nc1nccc(-c2cccnc2)n1 [IMATINIB]
- Activity: substrate [+]

Reference: ChEMBL document CHEMBL2073958, “Active transport of imatinib into and out of cells: implications for drug resistance” (Blood, 2004)
